# Experimental data taken from article PMC3878761, “Interactions of peptide triazole thiols with Env gp120 induce irreversible breakdown and inactivation of HIV-1 virions” (Retrovirology, 2013).
# Values joined by “and” are separate entries in the source; they are usually repeats but may differ in a detail not shown here. Identical values can stand only once. “Also recorded” adds a separate entry of the source. Like-named read-outs stand apart in the source and are kept apart here.
# Key:
# [1] = system: pseudotype virions bearing the HIV-1 BaL envelope glycoprotein; details: determined by release of the p24 capsid protein; cited from earlier work
# Source text: Since gp120 is the first viral protein to interact with the host cell, it is an attractive target for inhibiting infection. […] This inhibition is mediated by binding to a region of gp120 that partially overlaps the CD4 binding site.
# [2] = system: CHO-K1 cells expressing gp160; test: gp120 shedding and lysis, CHO-K1 cells expressing gp160; assay type: cell-based; details: unpublished results, manuscript in preparation
# [3] = system: gp41 of HIV-1 BaL pseudovirus (98–6 epitope); test: gp41 content of treated virions, mAb 98-6 western blot; details: western blot mAb 98–6, BaL pseudovirus
# [4] = system: fully infectious HIV-1 BaL virions; test: gp120 shedding from fully infectious HIV-1 BaL; details: read-out: gp120 shedding IC50 (*, fully infectious), 30 min at 37°C, western blot, ± SD
# Method: (§2) The replication competent virions were assayed for peptide triazole-induced inhibition of infection, gp120 shedding and p24 release in a BSL-2 facility. Gradient purification of the viruses and p24 release assays were performed as with pseudoviruses (described in Materials and Methods above). Cell infection by virus and its inhibition by peptide triazoles were tested using a modified version of a previously reported p24 ELISA assay [60]. The p24 release assays as well as detection of gp120 shedding were conducted as with the BaL pseudovirions (described in Materials and Methods above).
# (§3) Virions were purified using 6-20% iodixanol gradient and p24 content measured using ELISA. […] HOS CD4^+ve CCR5^+ve cells seeded, at 8,000 cells per well in a 96 well plate, were incubated for 24 hours followed by addition of pre-incubated inhibitor-virus mixture. […] Further, the peptide triazole and cell-free virus were pre-incubated for 30 min at 37°C followed by spinning for 2 hours at 13,600 rpm in a table top centrifuge (Eppendorf) at 4°C. Supernatant was separated and p24 content determined using the p24 capture ELISA (explained in the main Materials and Methods section) and gp120 using western blot analysis (explained in the Supplementary Text above).
# [5] = system: gp41 of HIV-1 BaL pseudovirus (2 F5 epitope); test: exposure of gp41 MPER epitope, 2 F5 ELISA; details: fixed BaL pseudovirions, 30 min at 37°C (dose) or 1 μM (time), n = 3
# Method: (§1) We also measured the presence of gp41 epitopes for human mAb’s 2 F5 and 4E10 using an altered ELISA detection method to minimize virus particle disruption. […] Virus fractions were collected and fixed with equal volume of 0.1% paraformaldehyde for 30 minutes at 4°C. The treated virus fractions were spun at 16,000 X g for 2 hours at 4°C in an Eppendorf table top centrifuge. Following PBS wash, fixed virions were coated on an ELISA plate at 50 μl per well and incubated overnight at 4°C. The plate was blocked with 3% BSA, and ELISA was used to detect gp41 epitopes with human gp41 antibodies 2 F5 and 4E10 followed by addition of anti-human IgG HRP secondary antibody.
# [6] = system: fully infectious HIV-1 BaL virions; details: read-out: p24 release IC50 (*, fully infectious), 30 min at 37°C, p24 capture ELISA, ± SD
# Method: as §2, §3
# HIV-1 YU2 gp120 = target: T1, HIV-1 YU2 gp120 (Human immunodeficiency virus type 1 group M subtype B, UniProt P35961); test: SPR direct binding to immobilized YU2 gp120; details: immobilized YU2 gp120, PBS + 0.005% Tween 20, pH 7.2, 25°C
# T1 construct: made in house; host or cells: 293F cells
# Method: (Additional file 1: Figure S2). […] Direct binding of the peptide triazole to sensor chip immobilized HIV-1 YU2 gp120 was measured as previously described using Surface Plasmon Resonance (SPR) with a Biacore 3000 optical biosensor (GE Healthcare). […] The cell viability was measured using the tetrazolium salt premix reagent, WST-1 from Takara Bio Inc. following the manufacturer’s protocol. The formazan product was measured using the microplate reader at absorbance wavelength 460 nm (Molecular Devices).
# [7] = system: R5-tropic and X4-tropic HIV-1; set-up: method as in 2 sources, one per row (each row's own in cited_ref): ref 7-9, 12 = [7]; PMID 20518583; doi:10.2165/11203940-000000000-00000; Perry CM Maraviroc: a review of its use in the management of CCR5-tropic HIV-1 infection Drugs 2010 10 9 1189 1213 10.2165/11203940-000000000-00000 20518583 || [8]; PMID 23541872; doi:10.1016/j.antiviral.2013.03.017; Haqqani AA Tilton JC Entry inhibitors and their use in the treatment of HIV-1 infection Antiviral Res 2013 10 2 158 170 10.1016/j.antiviral.2013.03.017 23541872 || [9]; PMID 23290628; doi:10.1016/j.coviro.2012.12.002; Henrich TJ Kuritzkes DR HIV-1 entry inhibitors: recent development and clinical use Curr Opin Virol 2013 10 1 51 57 10.1016/j.coviro.2012.12.002 23290628 PMC4213740 || [12]; PMID 17933722; Emmelkamp JM Rockstroh JK CCR5 antagonists: comparison of efficacy, side effects, pharmacokinetics and interactions–review of the literature Eur J Med Res 2007 10 9 409 417 17933722 ||| ref 34 = [34]; PMID 23470147; doi:10.1021/bi400166b; Emileh A Tuzer F Yeh H Umashankara M Moreira DR Lalonde JM Bewley CA Abrams CF Chaiken IM A model of peptide triazole entry inhibitor binding to HIV-1 gp120 and the mechanism of bridging sheet disrupt; details: cited from earlier work
# [8] = system: gp41 of HIV-1 BaL pseudovirus (4E10 epitope); test: exposure of gp41 MPER epitope, 4E10 ELISA; details: fixed BaL pseudovirions, 30 min at 37°C (dose) or 1 μM (time), n = 3
# Method: as §1
# HIV-1 BaL pseudovirus [9] = system: HIV-1 BaL pseudovirus
# HIV-1 BaL pseudovirus [10] = test: p24 release from HIV-1 BaL pseudovirus (ELISA)
# HIV-1 BaL pseudovirus [11] = test: gp120 shedding from HIV-1 BaL pseudovirus (western blot)
# HIV-1 BaL pseudovirus [12] = test: TEM morphology of treated virions; details: KR13 1 μM, 24 hours
# CD4^-ve CCR5^+ve cells = details: cited from earlier work
# Method: The same incubation conditions were used as for inhibition of HIV-1 entry into HOS […] cells.
# [13] = parenteral; cited from earlier work
# Source text: There is an urgent need for new antiretroviral agents for the prevention and treatment of HIV-1. Most of the currently approved HIV drugs target viral enzymes, in particular reverse transcriptase, protease and integrase. In contrast, the number of anti-HIV drugs targeting the entry process is more limited. The proteins involved in HIV-1 entry include gp120 and gp41 organized as a trimer on the viral envelope spike, and both CD4 and a chemokine receptor, either CCR5 or CXCR4, on the cell surface. The fusion inhibitor enfuvirtide (T20) and the CCR5 inhibitor maraviroc are t ...
# HIV-1 BaL pseudovirus [14] = details: KR13 1 μM, T20 dilutions from 1 μM, 30 min at 37°C, p24 ELISA, ± SD, n = 3
# Method: (§4) Treated virion samples were fractionated on a 6-20% iodixanol gradient (above). Gradient fractions were quantified for p24 using ELISA, and relative p24 release was quantified and plotted using the Origin Pro.8 (Origin Lab). Collected gradient fractions also were analyzed for gp120 shedding using western blot analysis, with detection using primary antibody D7324 and secondary anti-sheep HRP. The bands of the blot were analyzed using Image J software. The IC50 values were calculated using Origin Pro.8 (Origin Lab).
# HIV-1 BaL pseudovirus [15] = test: T20 effect on KR13-induced gp120 shedding, BaL; details: KR13 1 μM, T20 up to 1 μM, western blot, n = 3
# Method: as §4
# [16] = KR13 1 μM or HNG156 100 μM, 1 min to 24 hours, 37°C
# [17] = KR13 (1 μM), 30 minutes exposure, n = 3
compound,measurement,setting,value
CC[C@H](C)[C@H](NC(=O)[C@@H](N)CCCNC(=N)N)C(=O)N[C@@H](CC(N)=O)C(=O)N[C@@H](CC(N)=O)C(=O)N[C@H](C(=O)N1C[C@@H](n2cc([C]34[CH]5[CH]6[CH]7[CH]3[Fe]6754389%10[CH]4[CH]3[CH]8[CH]9[CH]4%10)nn2)C[C@H]1C(=O)N[C@@H](Cc1c[nH]c2ccccc12)C(=O)N[C@@H](CO)C(=O)N[C@@H](CCC(=O)O)C(=O)N[C@@H](C)C(=O)N[C@@H](CCSC)C(=O)N[C@@H](CCSC)C(=O)NCCC(=O)N[C@@H](CCC(N)=O)C(=O)NCCC(=O)N[C@@H](CS)C(N)=O)[C@@H](C)CC (some centres unmarked) [KR13],lysis of BaL pseudotype virions,[1],induced lysis of pseudotype virions bearing the HIV-1 BaL envelope glycoprotein
same,"gp120 shedding, CHO-K1 cells expressing gp160",[2],caused gp120 shedding
same,lysis of CHO-K1 cells expressing gp160,[2],did not lyse the cells
same,gp41 retention / 98–6 detection,[3],gp41 remained associated with virions; also recorded: gp41 was detected only weakly by 98–6 in either soluble or virion-associated fractions
same,IC50,[4],1200 nM
same,reactivity to 2 F5,[5],reactivity to 4E10 and 2 F5 increased in a dose-dependent manner; also recorded: time dependent exposure of the MPER epitope
same,IC50,[6],4400 nM
same,"SPR direct binding to gp120, in words",HIV-1 YU2 gp120,proportionally increasing binding responses to immobilized gp120 at increasing concentrations of KR13
same,inhibition of R5- and X4-tropic viruses,[7],potent inhibitor of R5- and X4-tropic viruses
same,reactivity to 4E10,[8],reactivity to 4E10 and 2 F5 increased in a dose-dependent manner; also recorded: time dependent exposure of the MPER epitope
same,kinetics of infectivity inhibition versus gp120 shedding,HIV-1 BaL pseudovirus [9]; [16],infectivity inhibition and gp120 shedding had similar kinetics
same,loss of infectivity,HIV-1 BaL pseudovirus [9]; [17],65-70%
same,"inhibition of infection, in words",HIV-1 BaL pseudovirus [9]; single round infection assay,inhibited infection
same,kinetics of p24 release,HIV-1 BaL pseudovirus [10]; [16],delayed kinetically
same,loss of p24,HIV-1 BaL pseudovirus [10]; [17],10%
same,reduction in virion p24 content,"HIV-1 BaL pseudovirus [10]; KR13 (1 μM), 360 minutes",50%
same,IC50,"HIV-1 BaL pseudovirus [10]; read-out: p24 release IC50, 30 minutes, gradient fractionation, capture ELISA, 1% triton X = 100%, ± SD, n > 3",32 ± 10 nM
same,"gp120 shedding, in words",HIV-1 BaL pseudovirus [11],caused gp120 shedding
same,loss of gp120,HIV-1 BaL pseudovirus [11]; [17],65-70%
same,core morphology of virions,HIV-1 BaL pseudovirus [12],"substantially different, with a shriveled and disordered appearance"
same,reduction of virion diameter,"HIV-1 BaL pseudovirus [12]; 37°C, n = 16",> 50%
CC1(C)CC(NC(=O)C(=O)Nc2ccc(Cl)cc2)CC(C)(C)N1 [NBD-556],"activation of infection, CD4^-ve CCR5^+ve cells (NBD-556)",CD4^-ve CCR5^+ve cells,can activate infection in CD4^-ve CCR5^+ve cells
enfuvirtide,adverse reactions at sites of injection,[13],adverse reactions at sites of injection are common
same,IC50,HIV-1 BaL pseudovirus [14],15 nM and 15.9 nM
same,effect of T20 on KR13-induced gp120 shedding,HIV-1 BaL pseudovirus [15],did not affect gp120 shedding caused by KR13; also recorded: No significant effect on the gp120 release
same,IC50,"HIV-1 BaL pseudovirus [9]; read-out: IC50, infection inhibition, BaL (Figure S9), Figure S9, ± SD, n = 3",34.5 ± 1.2 nM
